Data reported in US20100210713A1, “REGENERATION AND SURVIVAL OF CARDIAC PROGENITORS AND CARDIOMYOCYTES WITH A STRETCH ACTIVATED TRANSCRIPTION FACTOR” (THE GENERAL HOSPITAL CORPORATION, priority 2009, published 2010).
“Also recorded” adds a separate entry of the source. Values belong to the molecule of their own block, whether it stands above or below them.

Tests used:
Creb312 [1] = assay: Proteolytic cleavage of HA-tagged full-length Creb312 to the nuclear form in NRVM after chemical ER stressors or hypertrophic agonists (Western Blot, anti-HA); format: cell-based, rat
Method: Isolation of neonatal rat ventricular cardiomyocytes. All procedures described below were conducted according to the guidelines of the Harvard University Animal Care and Use Committee. Ventricular myocytes were isolated from 2 day-old Sprague Dawley rats as briefly described. Excised ventricular tissue was agitated in a 0.1% trypsin solution cooled to 4° C. for approximately 14 hours. Trypsinized ventricles were dissociated into their cellular constituents via serial exposure to a 0.1% solution of collagenase type II at 37° C. for 2 minutes. The myocyte portion of the cell population was enriched by passing the dissociated cell solution through a nylon mesh with 40 μm pores, and then pre-plating twice for 45 minutes each time. 10^6 isolated myocytes were seeded onto silicon membranes coated with fibronectin in culture medium consisting of M199 base supplemented with 10% heat-inactivated Fetal Bovine Serum, 10 mM HEPES, 20 mM glucose, 2 mM L-glutamine, 1.5 ? M vitamin B-12, and 50 U/ml penicillin. On the second day of culture, the serum concentration of the medium was reduced to 2%, and the medium was changed every 48 hours thereafter.
Adenovirus preparation and infection. Replication-defective recombinant adenoviruses expressing GFP and either HA-Creb312(FL) or HA-Creb312(N) under the control of CMV in bicistronic cassettes were generated using the AdEasy XL system (Stratagene). Briefly, HA-Creb312(FL) or HA-Creb312(N) were subcloned into the adenovirus shuttle vector pAdTrack-CMV (generous gift by Bert Vogelstein, Ref), and these constructs used for the generation of Ad.Creb312(FL) or Ad.Creb312(N), respectively, according to manufacturer's instructions. Adenoviral shuttle constructs for the expression of miRNAs against rat ILK, rat FAK, rat Creb312 under the control of hCMV were obtained by subcloning the XbaI/HindIII fragments of the respective miRNA expression constructs in pcDNA6-GW/EmGFP-miR (Invitrogen) into pShuttle (Stratagene). The recombinant adenoviruses were concentrated and purified by CsCl gradient ultracentrifugation, and the virus titer was determined through plaque assay.
NRVM were transduced with adenovirus at 5 moi (multiplicity of infection) in serum-free M199 for 90 min and maintained for 48 h in M-199/2% FCS before mechanical stretch, hypoxia experiments or treatment with chemicals.
Treatment with chemical ER stressors, cardiac hypertrophic agonists, hypoxic stress. 5×10^5 NRVM were plated in 6 well plates, transduced with Ad.Creb312(FL) and treated 48 h afterwards with tunicamycin (Tm), thapsigargin (Tg), brefeldin A (BFA) or DTT (1 mM) for 30 min and harvested for immunoblot analyses. Alternatively, NRVM were treated with phenylephrine, angiotensin II, endothelin or isoproterenol for 24 h. For hypoxic stress, 5×10^5 NRVM were plated in 6 well plates and switched from 20% O2/5% CO2 to 0.1% O2/5% CO2 for the indicated times.
Immunoprecipitation and Immunoblot. For immunoprecipitation, 10 μg pcDNA3/3xFlag-Creb312(N) were transfected into COS7 cells with Fugene HD (Roche). 48 h later, cells were washed once with PBS, harvested and lysed in 50 mM Tris-HCl pH 7.4, 150 mM NaCl, 1% Triton X-100 and Complete Protease Inhibitor (Roche) on ice. After centrifugation at 13000 rpm, 30 min, 4C, the supernatant was used for subsequent experiments. Embryonic hearts of various stages were homogenized in ice-cold PBS with a Rotor-Stator Homogenizer, and nuclear extracts were prepared from the cell pellets using the NE-PER Nuclear and Cytoplasmic Extraction Reagents (Pierce). Protein concentrations were determined with the Protein Assay Dye Reagent (Bio-Rad). 1.8 mg 3× Flag-Creb312(N) protein extract and 25 μg heart nuclear extract were rotated with 40 μl anti-Flag M2 Affinity gel (Sigma) at 4C over night. […]

Creb312 [2] = assay: Formation of nuclear Creb312 in Ad.Creb312(FL)-transduced NRVM under biaxial mechanical stretch after pathway inhibition (immunoblot); format: cell-based, rat; settings: NRVM with Ad.Creb312(FL), inhibitor 30 min prior to 10% pulsary (cyclic) biaxial stretch, Akt1/2 inhibitor 1 μM, SH6 10 μM, LY294002 10 μM, PD98059 25 μM, U0126 10 μM, SP600125 10 μM, PP2 1 μM, SB203580 25 μM, wortmannin 200 nM, FIG. 5
Method: Biaxial mechanical stretch experiments. Freshly isolated NRVM were seeded at 10^6 on fibronectin-coated silicon membranes and transduced with Ad.Creb312(FL) 48 h later. 2 days later, biaxial mechanical stretch experiments were carried out on devices as previously described (Ref, Andre Kleber paper) for indicated times. Cells were rinsed once in ice-cold PBS, harvested, lysed and processed for immunoblot. For inhibition experiments, NRVM were treated with chemical inhibitors for 30 min prior to stretching. All chemical inhibitors used were from Calbiochem except Akt1/2 inhibitor and wortmannin (Sigma). Concentrations used were: Akt1/2 inhibitor (1 μM), SH6 (10 μM), LY294002 (10 μM), PD98059 (25 μM), U0126 (10 μM), SP600125 (10 μM), PP2 (1 μM), SB203580 (25 μM), wortmannin (200 nM). […]
Immunoprecipitation and Immunoblot. For immunoprecipitation, 10 μg pcDNA3/3xFlag-Creb312(N) were transfected into COS7 cells with Fugene HD (Roche). 48 h later, cells were washed once with PBS, harvested and lysed in 50 mM Tris-HCl pH 7.4, 150 mM NaCl, 1% Triton X-100 and Complete Protease Inhibitor (Roche) on ice. After centrifugation at 13000 rpm, 30 min, 4C, the supernatant was used for subsequent experiments. Embryonic hearts of various stages were homogenized in ice-cold PBS with a Rotor-Stator Homogenizer, and nuclear extracts were prepared from the cell pellets using the NE-PER Nuclear and Cytoplasmic Extraction Reagents (Pierce). Protein concentrations were determined with the Protein Assay Dye Reagent (Bio-Rad). 1.8 mg 3× Flag-Creb312(N) protein extract and 25 μg heart nuclear extract were rotated with 40 μl anti-Flag M2 Affinity gel (Sigma) at 4C over night. Resins were washed twice each with 50 mM Tris-HCl pH 7.4, 150 mM NaCl with or without 0.1% Triton X-100, eluted with 15 μg 3× Flag peptide (Sigma), and 25 μl or 75 μl eluate were loaded on 10% SDS-polyacrylamide gels for subsequent immunoblot analysis. For immunoblots of mechanical stretch- or chemically treated-cardiomyocytes, 25 μg total cell extract were separated on 10% SDS-polyacrylamide gels. Primary antibodies used were: anti-Flag M2 (Sigma, 1:200), anti-HA (Bethyl, 1:4000), anti-Creb312 (1:2000), anti-phospho (Ser473)Akt (Cell Signaling, 1:1000), anti-phospho (Thr308)Akt (Cell Signaling, 1:1000), anti-Akt (Cell Signaling, 1:1000), anti-phospho p44/42 (Cell Signaling, 1:1000). Secondary antibodies (horseradish peroxidase-conjugated rabbit anti-mouse IgG or goat anti-rabbit IgG, Dako) were used at 1:10^5′ and immunoblots were developed with SuperSignal West Femto Substrate (Pierce).

BNP promoter region = assay: BNP promoter regulated luciferase gene expression assay; format: cell-based; settings: for BNP regulated luciferase gene expression: 10 ng DNA
Excerpt: (§1) FIGS. 8A-8D show the nuclear form of Creb312 activates BNP regulated luciferase gene expression.

ANF promoter region = assay: ANF promoter regulated luciferase gene expression assay; format: cell-based; settings: 700 bp promoter region of ANF; 50 ng DNA; FIG. 8B
Excerpt: as §1

[3] = NRVM transduced with Ad.Creb312(FL), ER stress-inducing chemicals, within one hour, Western Blot anti-HA
[4] = NRVM expressing HA-Creb312(FL), 24 h exposure to hypertrophic agonists, FIG. 4D

Molecule: C/C=C(/C)C(=O)O[C@H]1C(C)=C2[C@H]([C@@H]1OC(=O)CCCCCCC)[C@@](C)(OC(C)=O)C[C@H](OC(=O)CCC)[C@@]1(O)[C@H]2OC(=O)[C@@]1(C)O [thapsigargin]
proteolytic cleavage of Creb312 (formation of the nuclear form) (Creb312 [1]; [3]): caused proteolytic cleavage of Creb312

Molecule: angiotensin-2 (DRVYIHPF; Angiotensin-2; UniProt P01019 25-32, looked up) [hypertrophic agonist]
proteolytic cleavage of Creb312 (formation of the nuclear form) (Creb312 [1]; [4]): formation of the proteolytically cleaved, nuclear form of Creb312

Molecule: CNC[C@H](O)c1cccc(O)c1 [phenylephrine]
proteolytic cleavage of Creb312 (formation of the nuclear form) (Creb312 [1]; [4]): most strongly induced; also recorded: formation of the proteolytically cleaved, nuclear form of Creb312

Molecule: N#CC(=C(/N)Sc1ccccc1N)/C(C#N)=C(\N)Sc1ccccc1N [U0126]
effect on formation of the proteolytically cleaved, nuclear form of Creb312 in response to mechanical stretch (Creb312 [2]): did not show any effect; also recorded: did not inhibit

Molecule: CC(C)NCC(O)c1ccc(O)c(O)c1 (centres unmarked) [isoproterenol]
proteolytic cleavage of Creb312 (formation of the nuclear form) (Creb312 [1]; [4]): most strongly induced; also recorded: formation of the proteolytically cleaved, nuclear form of Creb312

Molecule: CC(C)(C)n1nc(-c2ccc(Cl)cc2)c2c(N)ncnc21 [PP2]
effect on formation of the proteolytically cleaved, nuclear form of Creb312 in response to mechanical stretch (Creb312 [2]): did not show any effect; also recorded: did not inhibit

Molecule: O=c1[nH]c2ccccc2n1C1CCN(Cc2ccc(-c3nc4cc5[nH]cnc5cc4nc3-c3ccccc3)cc2)CC1 [Akt1/2]
effect on formation of the proteolytically cleaved, nuclear form of Creb312 in response to mechanical stretch (Creb312 [2]): complete ablation
effect on formation of the proteolytically cleaved, nuclear form of Creb312 in response to mechanical stretch (Creb312 [2]; listed as Akt1/2 Inh): completely inhibited

Molecule: Oc1c2ccccc2c2c3c(cccc13)N=N2 [SP600125]
effect on formation of the proteolytically cleaved, nuclear form of Creb312 in response to mechanical stretch (Creb312 [2]): did not inhibit

Molecule: CCCC(=O)Nc1ncnc2c1ncn2[C@@H]1O[C@@H]2COP(=O)(O)O[C@H]2[C@H]1OC(=O)CCC [dbcA]
formation of nuclear Creb312 in response to cAMP treatment (Creb312 [1]; NRVM, data not shown): nuclear Creb312 is formed

Molecule: COc1cccc(-c2cc(=O)c3ccccc3o2)c1N [PD98059]
effect on formation of the proteolytically cleaved, nuclear form of Creb312 in response to mechanical stretch (Creb312 [2]): did not show any effect; also recorded: did not inhibit

Molecule: C[S+]([O-])c1ccc(-c2nc(-c3ccncc3)c(-c3ccc(F)cc3)[nH]2)cc1 (centres unmarked) [SB203580]
effect on formation of the proteolytically cleaved, nuclear form of Creb312 in response to mechanical stretch (Creb312 [2]): did not show any effect; also recorded: did not inhibit

Molecule: C[C@H]1CCC/C=C/[C@@H]2C[C@H](O)C[C@H]2[C@H](O)/C=C/C(=O)O1 [brefeldinA]
proteolytic cleavage of Creb312 (formation of the nuclear form) (Creb312 [1]; [3]): caused proteolytic cleavage of Creb312

Molecule: tunicamycin
proteolytic cleavage of Creb312 (formation of the nuclear form) (Creb312 [1]; [3]): to a lesser extend

Molecule: CC[C@H](C)[C@H](NC(=O)[C@H](CC(=O)O)NC(=O)[C@H](CC(C)C)NC(=O)[C@H](Cc1c[nH]cn1)NC(=O)[C@@H]1CSSC[C@H](N)C(=O)N[C@@H](CO)C(=O)N[C@H]2CSSC[C@H](NC(=O)[C@H](CCC(=O)O)NC(=O)[C@H](CCCCN)NC(=O)[C@H](CC(=O)O)NC(=O)[C@H](CCSC)NC(=O)[C@H](CC(C)C)NC(=O)[C@H](CO)NC(=O)[C@H](CO)NC2=O)C(=O)N[C@@H](C(C)C)C(=O)N[C@@H](Cc2ccc(O)cc2)C(=O)N[C@@H](Cc2ccccc2)C(=O)N1)C(=O)N[C@H](C(=O)N[C@@H](Cc1c[nH]c2ccccc12)C(=O)O)[C@@H](C)CC [endothelin-1]
proteolytic cleavage of Creb312 (formation of the nuclear form) (Creb312 [1]; [4]): formation of the proteolytically cleaved, nuclear form of Creb312

Molecule: O[C@H](CS)[C@H](O)CS (racemic) [DTT, dithiothreitol]
proteolytic cleavage of Creb312 (formation of the nuclear form) (Creb312 [1]; [3]): to a lesser extend

BNP regulated luciferase gene expression (BNP promoter region; 2 kb promoter region of BNP, FIG. 8C): induced
BNP regulated luciferase gene expression (BNP promoter region; 135 bp promoter region of BNP, FIG. 8D): induced
fold activation of luciferase gene expression (BNP promoter region; (−135 to −115) BNP promoter region, 200 ng DNA, FIG. 10C): three fold
ANF regulated luciferase gene expression (ANF promoter region): induced
B1: Creb312(N): nuclear form of Creb312, residues 1-376 of the full length Creb312 (SEQ ID NO: 3) (protein, listed as Homo sapiens)
chain: MEVLESGEQGVLQWDRKLSELSEPGDGEALMYHTHFSELLDEFSQNVLGQLLNDPFLSEKSVSMEVEPSPTSPAPLIQAEHSYSLCEEPRAQSPFTHITTSDSFNDDEVESEKWYLSTDFPSTSIKTEPVTDEPPPGLVPSVTLTITAISTPLEKEEPPLEMNTGVDSSCQTIIPKIKLEPHEVDQFLNFSPKEAPVDHLHLPPTPPSSHGSDSEGSLSPNPRLHPFSLPQTHSPSRAAPRAPSALSSSPLLTAPHKLQGSGPLVLTEEEKRTLIAEGYPIPTKLPLSKSEEKALKKIRRKIKNKISAQESRRKKKEYMDSLEKKVESCSTENLELRKKVEVLENTNRTLLQQLQKLQTLVMGKVSRTCKLAGTQT
